The compounds below were run against Transient receptor potential cation channel subfamily V member 4 (Homo sapiens) (UniProt Q9HBA0) (assay: Agonist activity at TRPV4).
Assay type: functional

Sequence of Transient receptor potential cation channel subfamily V member 4 (Homo sapiens) (Q9HBA0 whole entry): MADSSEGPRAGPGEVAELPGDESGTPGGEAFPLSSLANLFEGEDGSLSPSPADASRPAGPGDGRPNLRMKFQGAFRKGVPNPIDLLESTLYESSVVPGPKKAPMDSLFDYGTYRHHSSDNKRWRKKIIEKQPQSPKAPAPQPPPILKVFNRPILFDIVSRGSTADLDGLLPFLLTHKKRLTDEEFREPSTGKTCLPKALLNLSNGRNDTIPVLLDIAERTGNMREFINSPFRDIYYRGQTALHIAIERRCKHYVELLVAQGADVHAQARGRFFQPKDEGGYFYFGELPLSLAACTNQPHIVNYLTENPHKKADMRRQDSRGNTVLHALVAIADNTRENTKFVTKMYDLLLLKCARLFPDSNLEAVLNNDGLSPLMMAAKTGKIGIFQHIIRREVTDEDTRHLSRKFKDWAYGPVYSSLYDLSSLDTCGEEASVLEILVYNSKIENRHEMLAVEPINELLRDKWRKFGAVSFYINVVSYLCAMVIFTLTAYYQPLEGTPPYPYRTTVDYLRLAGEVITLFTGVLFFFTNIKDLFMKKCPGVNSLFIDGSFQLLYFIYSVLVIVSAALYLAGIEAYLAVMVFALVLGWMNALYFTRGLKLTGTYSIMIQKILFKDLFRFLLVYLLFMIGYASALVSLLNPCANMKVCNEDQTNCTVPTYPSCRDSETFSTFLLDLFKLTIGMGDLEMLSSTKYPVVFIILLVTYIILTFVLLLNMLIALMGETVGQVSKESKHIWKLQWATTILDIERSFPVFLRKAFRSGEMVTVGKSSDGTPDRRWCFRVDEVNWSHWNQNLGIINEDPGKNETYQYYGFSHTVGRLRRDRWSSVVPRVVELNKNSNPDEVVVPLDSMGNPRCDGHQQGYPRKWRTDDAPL

Row | Structure (SMILES) | Activity
1 | CCCCCCCCCC(=O)O[C@H]1[C@H](C)[C@]2(O)[C@H](C=C(CO)C[C@@]3(O)C(=O)C(C)=C[C@H]23)[C@H]2C(C)(C)[C@@]12OC(=O)CCCCCCCCC | 0.099 µM
2 | CCCCC/C=C/C/C=C/C/C=C/CC1OC1CCCC(=O)O (centres undefined) | 0.01 µM

Each compound was assayed against Transient receptor potential cation channel subfamily M member 8 (Homo sapiens) (UniProt Q7Z2W7) (assay: Agonist activity at TRPM8).
Assay type: functional

Sequence of Transient receptor potential cation channel subfamily M member 8 (Homo sapiens) (Q7Z2W7 whole entry, looked up): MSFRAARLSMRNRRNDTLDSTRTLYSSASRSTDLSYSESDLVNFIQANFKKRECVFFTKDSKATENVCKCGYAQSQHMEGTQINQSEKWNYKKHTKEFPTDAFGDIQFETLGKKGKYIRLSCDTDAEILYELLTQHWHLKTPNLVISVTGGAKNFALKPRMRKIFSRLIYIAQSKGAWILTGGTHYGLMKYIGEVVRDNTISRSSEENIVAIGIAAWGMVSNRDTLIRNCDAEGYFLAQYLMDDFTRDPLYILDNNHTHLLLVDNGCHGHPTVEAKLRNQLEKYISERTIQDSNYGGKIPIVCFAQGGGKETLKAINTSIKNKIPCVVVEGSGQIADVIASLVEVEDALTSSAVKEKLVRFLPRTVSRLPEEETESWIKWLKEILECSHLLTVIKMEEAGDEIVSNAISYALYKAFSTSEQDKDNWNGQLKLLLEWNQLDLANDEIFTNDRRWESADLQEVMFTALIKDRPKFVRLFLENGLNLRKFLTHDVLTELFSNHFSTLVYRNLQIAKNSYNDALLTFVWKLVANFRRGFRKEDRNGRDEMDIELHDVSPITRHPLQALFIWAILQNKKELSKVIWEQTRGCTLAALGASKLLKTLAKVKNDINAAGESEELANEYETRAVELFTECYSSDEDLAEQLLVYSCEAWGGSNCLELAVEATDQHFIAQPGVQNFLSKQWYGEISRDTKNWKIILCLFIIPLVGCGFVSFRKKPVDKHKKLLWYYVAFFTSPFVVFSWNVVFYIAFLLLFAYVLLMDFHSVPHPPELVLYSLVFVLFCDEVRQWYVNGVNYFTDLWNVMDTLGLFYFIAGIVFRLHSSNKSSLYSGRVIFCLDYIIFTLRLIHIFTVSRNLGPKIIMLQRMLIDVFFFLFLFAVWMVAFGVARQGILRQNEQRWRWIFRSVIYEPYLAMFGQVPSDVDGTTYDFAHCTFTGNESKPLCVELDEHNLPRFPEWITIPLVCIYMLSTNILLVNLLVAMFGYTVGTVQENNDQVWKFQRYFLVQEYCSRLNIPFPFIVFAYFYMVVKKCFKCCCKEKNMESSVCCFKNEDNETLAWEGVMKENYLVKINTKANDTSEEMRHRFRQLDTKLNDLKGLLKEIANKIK

Row | Structure (SMILES) | Activity
3 | CC12CCC(CC1)C(C)(C)O2 | 100 µM
4 | O=C1NC(c2cccc([N+](=O)[O-])c2)=CCN1c1ccccc1O | 0.099 µM
5 | CC1CCC(C(C)C)C(O)C1 (centres undefined) | 10 µM

What follows are compounds tested against Transient receptor potential cation channel subfamily A member 1 (Homo sapiens) (UniProt O75762) (assay: Agonist activity at TRPA1).
Assay type: functional

Sequence of Transient receptor potential cation channel subfamily A member 1 (Homo sapiens) (O75762 whole entry): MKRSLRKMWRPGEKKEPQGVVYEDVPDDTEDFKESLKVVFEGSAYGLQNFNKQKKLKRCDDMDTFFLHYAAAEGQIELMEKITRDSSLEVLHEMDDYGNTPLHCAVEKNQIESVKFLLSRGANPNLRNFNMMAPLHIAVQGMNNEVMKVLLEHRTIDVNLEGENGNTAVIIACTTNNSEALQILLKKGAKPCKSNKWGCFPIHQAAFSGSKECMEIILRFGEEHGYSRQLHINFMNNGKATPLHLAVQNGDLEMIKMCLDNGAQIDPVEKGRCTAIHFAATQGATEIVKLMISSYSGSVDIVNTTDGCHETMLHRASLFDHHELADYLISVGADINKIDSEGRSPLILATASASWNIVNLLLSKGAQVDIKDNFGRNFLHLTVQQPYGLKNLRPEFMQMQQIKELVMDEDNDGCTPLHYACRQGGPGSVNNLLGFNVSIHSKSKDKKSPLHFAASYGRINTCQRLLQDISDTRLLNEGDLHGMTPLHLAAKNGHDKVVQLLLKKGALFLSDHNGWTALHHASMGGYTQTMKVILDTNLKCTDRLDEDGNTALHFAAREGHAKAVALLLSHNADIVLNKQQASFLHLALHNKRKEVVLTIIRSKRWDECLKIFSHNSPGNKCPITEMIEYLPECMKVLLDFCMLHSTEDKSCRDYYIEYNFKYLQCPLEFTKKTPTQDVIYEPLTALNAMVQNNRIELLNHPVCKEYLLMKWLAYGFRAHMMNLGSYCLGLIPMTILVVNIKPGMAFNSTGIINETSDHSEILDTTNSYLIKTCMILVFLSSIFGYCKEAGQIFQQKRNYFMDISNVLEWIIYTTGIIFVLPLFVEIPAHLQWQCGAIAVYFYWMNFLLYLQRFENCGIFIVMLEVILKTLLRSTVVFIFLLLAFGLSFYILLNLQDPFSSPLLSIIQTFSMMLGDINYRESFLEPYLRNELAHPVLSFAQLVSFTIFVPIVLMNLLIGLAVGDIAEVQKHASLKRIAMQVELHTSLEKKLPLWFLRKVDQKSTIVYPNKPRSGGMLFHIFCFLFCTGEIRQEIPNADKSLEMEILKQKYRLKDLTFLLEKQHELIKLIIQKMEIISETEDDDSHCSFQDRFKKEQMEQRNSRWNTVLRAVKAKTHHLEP

Row | Structure (SMILES) | Activity
6 | O=C1NC(c2cccc([N+](=O)[O-])c2)=CCN1c1ccccc1O | 0.099 µM
7 | CCCCCc1cc(O)c2c(c1)OC(C)(C)[C@@H]1CCC(C)=C[C@@H]21 | 10 µM
8 | O=C/C=C/c1ccccc1 | 10 µM
9 | C=CCS[S+]([O-])CC=C (centres undefined) | 10 µM
